This note sets out measurements from patent US6921770B2 (priority 2000, dated 2005).

The test system of one test is Pyricularia grisea. The test is classed as in vivo.
A further test has as its system rice blast fungi. The test is classed as in vivo, Pyricularia grisea.

Where two headings read alike, the source gives them in different places.

In the case of “2-(3-trifluoromethoxyphenylimino)-3-methyl-4-[N-methoxyphenyl)carbamoylmethyl]-1,3-thiazol-4-ine [Compound 339]”, the “controlling effect on rice blast” value in the test on Pyricularia grisea (2 ppm) is given as 80%; in the test with Pyricularia grisea (10 ppm), 95%; in the test on Pyricularia grisea (100 ppm), 96%. In addition, in the test with rice blast fungi, the “Inhibiting Ratio (%) (at 250 ppm)” value was found to be 98%.

As for `CCc1ccc(NC(=O)Cc2csc(=Nc3ccc(C(F)(F)F)cc3)n2C)cc1.Cl` [Compound 346, 2-(4-trifluoromethylphenylimino)-3-methyl-4-[N-(4-ethylphenyl)carbamoylmethyl]-1,3-thiazol-4-ine hydrochloride], the figures for the “controlling effect on rice blast” value with Pyricularia grisea (2 ppm), in the test on Pyricularia grisea (10 ppm) and with Pyricularia grisea (100 ppm) were 79%, 96% and 99%, respectively.

With `COc1ccc(NC(=O)Cc2csc(=Nc3ccc(C(F)(F)F)cc3)n2C)cc1F.Cl` [Compound 343, 2-(4-trifluoromethylphenylimino)-3-methyl-4-[N-(3-fluoro-4-methoxyphenyl)carbamoylmethyl]-1,3-thiazol-4-ine hydrochloride], the “controlling effect on rice blast” value in the test on Pyricularia grisea (2 ppm) came out at 90%; in the test on Pyricularia grisea (10 ppm) it was 94%; with Pyricularia grisea (100 ppm), 98%.

With `COc1ccc(NC(=O)Cc2csc(=Nc3ccc(C#N)cc3)n2C)cc1F.Cl` [Compound 344, 2-(4-cyanophenylimino)-3-methyl-4-[N-(3-fluoro-4-methoxyphenyl)carbamoylmethyl]-1,3-thiazol-4-ine hydrochloride], the results for the “controlling effect on rice blast” value in the test on Pyricularia grisea (2 ppm), in the test with Pyricularia grisea (10 ppm) and in the test on Pyricularia grisea (100 ppm) were 83%, 97% and 98%, respectively.

Take `Cc1ccc(NC(=O)Cc2csc(=Nc3cc(OC(C)C)c(Cl)cc3F)n2C)cc1.Cl` [Compound 342]: the “controlling effect on rice blast” value is listed as 90% in the test on Pyricularia grisea (2 ppm), 98% with Pyricularia grisea (10 ppm) and 92% in the test with Pyricularia grisea (100 ppm).

In the case of `CCc1ccc(NC(=O)Cc2csc(=Nc3ccc(C#N)cc3)n2C)cc1.Cl` [Compound 345, 2-(4-cyanophenylimino)-3-methyl-4-[N-(4-ethylphenyl)carbamoylmethyl]-1,3-thiazol-4-ine hydrochloride], the “controlling effect on rice blast” value in the test on Pyricularia grisea (2 ppm, hydrochloride) came out at 70%; in the test with Pyricularia grisea (10 ppm, hydrochloride) it was 94%; in the test on Pyricularia grisea (100 ppm, hydrochloride) it was 97%.

As to `CCc1ccc(NC(=O)Cc2csc(=Nc3ccc(C#N)cc3)n2C)cc1.Cl` [Compound 341, 2-(4-cyanophenylimino)-3-methyl-4-[N-(4-ethylphenyl)carbamoylmethyl]-1,3-thiazol-4-ine hydrochloride], the “controlling effect on rice blast” value in the test with Pyricularia grisea (2 ppm, hydrochloride) is given as 96%; in the test with Pyricularia grisea (10 ppm, hydrochloride), 98%; with Pyricularia grisea (100 ppm, hydrochloride), 93%.

As for `Br.Cc1ccc(NC(=O)Cc2csc(=Nc3cccc(C(F)(F)F)c3)n2C)cc1` [Compound 6, 2-(3-trifluoromethylphenylimino)-3-methyl-4-[N-(4-methylphenyl)carbamoylmethyl]-1,3-thiazol-4-ine hydrobromide], in the test with rice blast fungi, the “Inhibiting Ratio (%) (at 250 ppm)” value is given as 99%.

Turning to `Cl.Cn1c(CC(=O)Nc2ccccc2F)csc1=Nc1cccc(Cl)c1` [Compound 90, 2-(3-chlorophenylimino)-3-methyl-4-[N-(2-fluoro)phenylcarbamoylmethyl]-1,3-thiazol-4-ine hydrochloride], the “Inhibiting Ratio (%) (at 250 ppm)” value with rice blast fungi turned out to be 91%.

Turning to `Cc1ccc(N=c2scc(CC(=O)Nc3ccc(C)c(Cl)c3)n2C)c(C)c1.Cl` [Compound 227, 2-(2,4-dimethylphenylimino)-3-methyl-4-[N-(3-chloro-4-methylphenyl)carbamoylmethyl]-4-thiazoline hydrochloride], the “Inhibiting Ratio (%) (at 250 ppm)” value in the test with rice blast fungi is recorded as 97%.

`Cl.Cn1c(CC(=O)Nc2ccccc2F)csc1=Nc1ccccc1F` [Compound 89, 2-(2-fluorophenylimino)-3-methyl-4-[N-(2-fluorophenyl)carbamoylmethyl]-1,3-thiazol-4-ine hydrochloride]: in the test on rice blast fungi, the “Inhibiting Ratio (%) (at 250 ppm)” value amounted to 83%.

For `Cl.Cn1c(CC(=O)Nc2ccc(Br)cc2)csc1=Nc1ccc(C(F)(F)F)cc1` [Compound 132, 2-(4-trifluoromethylphenylimino)-3-methyl-4-[N-(4-bromophenyl)carbamoylmethyl]-1,3-thiazol-4-ine hydrochloride], in the test on rice blast fungi, the “Inhibiting Ratio (%) (at 250 ppm)” value turned out to be 99%.

`Br.Cn1c(CC(=O)Nc2ccccc2)csc1=Nc1cc(C(F)(F)F)cc(C(F)(F)F)c1` [Compound 45, 2-(3,5-ditrifluoromethylphenylimino)-3-methyl-4-(N-phenylcarbamoylmethyl)-1,3-thiazol-4-ine hydrobromide]: the “Inhibiting Ratio (%) (at 250 ppm)” value in the test on rice blast fungi is listed as 93%.

On to `Br.Cc1ccc(N=c2scc(CC(=O)Nc3cccc(Cl)c3)n2C)c(F)c1` [Compound 67, 2-(2-fluoro-4-methylphenylimino)-3-methyl-4-[N-(3-chlorophenyl)carbamoylmethyl]-1,3-thiazol-4-ine hydrobromide], for which the “Inhibiting Ratio (%) (at 250 ppm)” value with rice blast fungi turned out to be 100%.

`Cc1ccc(NC(=O)Cc2csc(=Nc3ccc(Oc4ccccc4)cc3)n2C)cc1Cl.Cl` [Compound 240, 3-methyl-2-(4-phenoxyphenylimino)-4-[N-(3-chloro-4-methylphenyl)carbamoylmethyl]-1,3-thiazol-4-ine hydrochloride]: in the test on rice blast fungi, the “Inhibiting Ratio (%) (at 250 ppm)” value is listed as 88%.

For the compound `Cl.Cn1c(CC(=O)Nc2ccc(Br)cc2)csc1=Nc1ccc(OC(F)(F)F)cc1` [Compound 139, 2-(4-trifluoromethoxyphenylimino)-3-methyl-4-[N-(4-bromophenyl)carbamoylmethyl]-1,3-thiazol-4-ine hydrochloride], in the test with rice blast fungi, the “Inhibiting Ratio (%) (at 250 ppm)” value turned out to be 99%.

Regarding `Br.Cn1c(CC(=O)Nc2cccc(Cl)c2)csc1=Nc1cccc(F)c1` [Compound 59, 2-(3-fluorophenylimino)-3-methyl-4-[N-(3-chlorophenyl)carbamoylmethyl]-1,3-thiazoyl-4-ine hydrobromide], the “Inhibiting Ratio (%) (at 250 ppm)” value in the test with rice blast fungi was found to be 96%.

`Br.Cc1ccc(NC(=O)Cc2csc(=Nc3ccc(Br)cc3C)n2C)cc1` [Compound 33, 2-(4-bromo-2-methylphenylimino)-3-methyl-4-[N-(4-methylphenyl)carbamoylmethyl]-1,3-thiazol-4-ine hydrobromide]: the “Inhibiting Ratio (%) (at 250 ppm)” value in the test on rice blast fungi was 100%.

Turning to `CCCCc1ccc(N=c2scc(CC(=O)Nc3ccc(C#N)cc3)n2C)cc1.Cl` [Compound 221, 2-[4-(n-butyl)phenylimino]-3-methyl-4-[N-(4-cyanophenyl)carbamoylmethyl]-4-thiazoline hydrochloride], the “Inhibiting Ratio (%) (at 250 ppm)” value with rice blast fungi was determined as 87%.

For `Br.Cn1c(CC(=O)Nc2ccccc2)csc1=Nc1ccc(Cl)c(Cl)c1` [Compound 325, 2-(3,4-dichlorophenylimino)-3-methyl-4-N-phenylcarbamoylmethyl-1,3-thiazol-4-ine hydrobromide], the “Inhibiting Ratio (%) (at 250 ppm)” value in the test on rice blast fungi worked out at 97%.

In the case of `Br.Cn1c(CC(=O)Nc2cccc(C(F)(F)F)c2)csc1=Nc1ccc(C(F)(F)F)cc1` [Compound 8, 2(4-trifluoromethylphenylimino)-3-methyl-4-[N-(3-trifluoromethylphenyl)carbamoylmethyl]-1,3-thiazol-4-ine hydrobromide], the “Inhibiting Ratio (%) (at 250 ppm)” value in the test on rice blast fungi is 90%.

As to `Cc1ccc(NC(=O)Cc2csc(=Nc3ccc(OC(F)(F)F)cc3)n2C)cc1Cl.Cl` [Compound 231, 2-(4-trifluoromethoxyphenylimino)-3-methyl-4-[N-(3-chloro-4-methylphenyl)carbamoylmethyl]-4-thiazoline hydrochloride], the “Inhibiting Ratio (%) (at 250 ppm)” value in the test on rice blast fungi was 93%.

Turning to `Cl.Cn1c(CC(=O)Nc2ccc(Cl)cc2)csc1=Nc1ccc(F)c(Cl)c1` [Compound 155, 2-(3-chloro-4-fluorophenylimino)-3-methyl-4-[N-(4-chlorophenyl)carbamoylmethyl]-1,3-thiazol-4-ine hydrochloride], in the test on rice blast fungi, the “Inhibiting Ratio (%) (at 250 ppm)” value turned out to be 96%.

Turning to `Br.COc1ccccc1NC(=O)Cc1csc(=Nc2ccc(C(C)(C)C)cc2)n1C` [Compound 327, 2-(4-butyl(t-)phenylimino)-3-methyl-4-[N-(2-methoxyphenyl)carbamoylmethyl]-1,3-thiazol-4-ine hydrobromide], the “Inhibiting Ratio (%) (at 250 ppm)” value in the test on rice blast fungi was determined as 62%.

On to `Br.Cc1ccc(NC(=O)Cc2csc(=Nc3cc(Cl)ccc3C)n2C)cc1` [Compound 34, 2-(5-chloro-2-methylphenylimino)-3-methyl-4-[N-(4-methylphenyl)carbamoylmethyl]-1,3-thiazol-4-ine hydrobromide], for which, in the test on rice blast fungi, the “Inhibiting Ratio (%) (at 250 ppm)” value stood at 100%.

Regarding `Br.CC(C)Oc1cccc(N=c2scc(CC(=O)Nc3ccc(Cl)cc3)n2C)c1` [Compound 303, 2-(3-isopropoxyphenylimino)-3-methyl-4-[N-(4-chlorophenyl)carbamoylmethyl]-1,3-thiazol-4-ine hydrobromide], the “Inhibiting Ratio (%) (at 250 ppm)” value in the test with rice blast fungi stood at 100%.

On to `Cc1ccc(NC(=O)Cc2csc(=Nc3ccccc3F)n2C)cc1.Cl` [Compound 167, 2-(2-fluorophenylimino)-3-methyl-4-[N-(4-methylphenyl)carbamoylmethyl]-1,3-thiazol-4-ine hydrochloride], for which the “Inhibiting Ratio (%) (at 250 ppm)” value in the test with rice blast fungi was 88%.

On to `Br.Cn1c(CC(=O)Nc2ccc(Cl)cc2)csc1=Nc1ccccc1` [Compound 305, 2-phenylimino-3-methyl-4-[N-(4-chlorophenyl)carbamoylmethyl]-1,3-thiazol-4-ine hydrobromide], for which the “Inhibiting Ratio (%) (at 250 ppm)” value in the test on rice blast fungi was 100%.

With `Br.COc1ccc(NC(=O)Cc2csc(=Nc3ccc(Oc4ccccc4)cc3)n2C)cc1` [Compound 320, 2-(4-phenoxyphenylimino)-3-methyl-4-[N-(4-methoxyphenyl)carbamoylmethyl]-1,3-thiazol-4-ine hydrobromide], the “Inhibiting Ratio (%) (at 250 ppm)” value in the test on rice blast fungi is 100%.

Regarding `Cl.Cn1c(CC(=O)Nc2ccc(Br)cc2)csc1=Nc1cccc(Br)c1` [Compound 137, 2-(3-bromophenylimino)-3-methyl-4-[N-(4-bromophenyl)carbamoylmethyl]-1,3-thiazol-4-ine hydrochloride], in the test with rice blast fungi, the “Inhibiting Ratio (%) (at 250 ppm)” value is listed as 97%.

As to `Br.Cc1ccc(F)c(N=c2scc(CC(=O)Nc3ccccc3)n2C)c1` [Compound 44, 2-(2-fluoro-5-methylphenylimino)-3-methyl-4-(N-phenylcarbamoylmethyl)-1,3-thiazol-4-ine hydrobromide], in the test with rice blast fungi, the “Inhibiting Ratio (%) (at 250 ppm)” value was found to be 95%.
